In BindingDB's records for doi:10.1016/j.bmcl.2009.02.053 (University of Warsaw, 2009):

What was measured:
[1] = molecular target: T1, Eukaryotic translation initiation factor 4E (Oryctolagus cuniculus, UniProt P29338); assay: Inhibition of eukaryotic initiation factor 4E in micrococcal nuclease-pretreated rabbit reticulocyte lysate assessed as inhibition of m7,3'-O-GpppG-capped 5'UTRbetaglob-LUC mRNA translation by luciferase-based luminometry
[2] = molecular target: T1, Eukaryotic translation initiation factor 4E; assay: Inhibition of eukaryotic initiation factor 4E in micrococcal nuclease-pretreated rabbit reticulocyte lysate assessed as inhibition of m7,3'-O-GpppG-capped 5'UTRbetaglob-LUC mRNA translation treated 60 mins before mRNA addition by luciferase-based luminometry

T1 sequence (P29338 whole entry): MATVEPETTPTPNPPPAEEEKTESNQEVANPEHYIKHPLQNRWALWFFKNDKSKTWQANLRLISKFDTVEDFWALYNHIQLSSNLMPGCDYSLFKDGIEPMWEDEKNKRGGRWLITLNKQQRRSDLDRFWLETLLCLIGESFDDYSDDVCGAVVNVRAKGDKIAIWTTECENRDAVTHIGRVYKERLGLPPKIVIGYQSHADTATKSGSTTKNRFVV

- IC50 [1]: 1440 nM
- IC50 [2]: 1300 nM
Compound: C[n+]1cn(C2OC(COP(=O)(S)OP(=O)(O)OP(=O)(O)O)C(O)C2O)c2nc(N)[n-]c(=O)c21 [2-amino-9-[(2R,3R,4S,5R)-3,4-dihydroxy-5-{[({[(phosphonatooxy)phosphinato]oxy}(sulfanidyl)phosphoryl)oxy]methyl}oxolan-2-yl]-7-methyl-6-oxido-9H-purin-7-ium]
